# Assays:
# HT-29 [1] = assay: Cell cycle arrest in human HT-29 cells assessed as accumulation at sub-G1 phase at 0.1 uM after 24 hrs by flow cytometry; type: functional
# HT-29 [2] = assay: Cell cycle arrest in human HT-29 cells assessed as accumulation at sub-G1 phase at 0.5 uM after 24 hrs by flow cytometry; type: functional
# A549 = assay: Antiproliferative activity against human A549 cells after 3 days by MTT assay; type: functional, cell-based; settings: A549, 72 h
# HT-29 [3] = assay: Cell cycle arrest in human HT-29 cells assessed as accumulation at sub-G1 phase at 2.5 uM after 24 hrs by flow cytometry; type: functional
# HT-29 [4] = assay: Cell cycle arrest in human HT-29 cells assessed as accumulation at sub-G1 phase at 0.05 uM after 48 hrs by flow cytometry; type: functional
# HT-29 [5] = assay: Cell cycle arrest in human HT-29 cells assessed as accumulation at sub-G1 phase at 0.05 uM after 24 hrs by flow cytometry; type: functional
# HT-29 [6] = assay: Cell cycle arrest in human HT-29 cells assessed as accumulation at sub-G1 phase at 2.5 uM after 48 hrs by flow cytometry; type: functional
# HT-29 [7] = assay: Cell cycle arrest in human HT-29 cells assessed as accumulation at sub-G1 phase at 0.5 uM after 48 hrs by flow cytometry; type: functional
# HT-29 [8] = assay: Cell cycle arrest in human HT-29 cells assessed as accumulation at sub-G1 phase at 1 uM after 48 hrs by flow cytometry; type: functional
# HT-29 [9] = assay: Cell cycle arrest in human HT-29 cells assessed as accumulation at sub-G1 phase at 0.25 uM after 48 hrs by flow cytometry; type: functional
# HT-29 [10] = assay: Cell cycle arrest in human HT-29 cells assessed as accumulation at sub-G1 phase at 0.1 uM after 48 hrs by flow cytometry; type: functional
# HT-29 [11] = assay: Cell cycle arrest in human HT-29 cells assessed as accumulation at sub-G1 phase at 1 uM after 24 hrs by flow cytometry; type: functional
# HeLa = assay: Antiproliferative activity against human HeLa cells after 3 days by MTT assay; type: functional, cell-based; settings: 72 h
# HT-29 [12] = assay: Cell cycle arrest in human HT-29 cells assessed as accumulation at sub-G1 phase at 0.25 uM after 24 hrs by flow cytometry; type: functional
# HT-29 [13] = assay: Antiproliferative activity against human HT-29 cells after 3 days by MTT assay; type: functional, cell-based; settings: HT-29, 72 h
IC50 (A549) [nM],IC50 (HeLa) [nM],IC50 (HT-29 [13]) [nM],SMILES,Activity (HT-29 [1]) [%],Activity (HT-29 [2]) [%],Activity (HT-29 [3]) [%],Activity (HT-29 [4]) [%],Activity (HT-29 [5]) [%],Activity (HT-29 [6]) [%],Activity (HT-29 [7]) [%],Activity (HT-29 [8]) [%],Activity (HT-29 [9]) [%],Activity (HT-29 [10]) [%],Activity (HT-29 [11]) [%],Activity (HT-29 [12]) [%]
60,70,34,Nc1ccc2cc3ccccc3nc2c1CO,0.1,9.7,13.7,0.7,3.2,23.4,26.3,31.7,18.7,4.7,5.2,0.7
130,70,70,Nc1ccc2cc3ccc(I)cc3nc2c1CO,1.4,1.7,8.9,2.14,3.9,12,19.3,14.8,23.7,22.6,8.7,6.3

# From ChEMBL document CHEMBL1153811, “Unusual cellular uptake of cytotoxic 4-hydroxymethyl-3-aminoacridine” (Eur J Med Chem, 2009)
